# Measurements reported in patent US6432381B1, “Methods for targeting drug delivery to the upper and/or lower gastrointestinal tract” (Elan Pharma International Limited, priority 1994, dated 2002).
# Legend:
# [1] = Particle size determination; assay type: physicochemical; conditions: wet grinding
# Protocol: As used herein, particle size is determined on the basis of weight average particle size as measured by conventional particle size measuring techniques well known to those skilled in the art, such as sedimentation field flow fractionation, photon correlation spectroscopy, or disk centrifugation. […] By “effective particle size” is meant that at least 90% of the particles in the sample measured by the above-noted weight sizing techniques have a particle size less than the stated size.
# The particle size was determined during the milling process and again immediately before the suspensions were administered. Particle size was determined on the Coulter Model N4MD Submicron Particle Analyzer (Coulter Corp.; Miami Lakes, Fla.); and using the Microtrac Ultrafine Particle Analyzer (Leeds and Northrup Co.; St. Petersburg, Fla.).
# [2] = system: GI tract; experiment: X-ray diagnostic imaging of mucoadhesion in the GI tract (rats); assay type: in vivo
# Protocol: (§1) The amount and site of the mucoadhesion was determined by x-ray diagnostic imaging. The imaging was performed in anesthetized rats with the exception of G05-R1 samples which were imaged in fasted and anesthetized ferrets. Images were obtained using the Siemens C-Arm Siremobil 3U x-ray unit. The imaging dose was 10 ml/kg administered via gastric intubation to the anesthetized animal. X-rays were taken at 15, 30, 45 and 60 minutes and at 1, 2, 5 and 24 hours post-dose. A 10-15 ml volume of air was introduced to the animal at 30 minutes to produce a double contrast image.
# (§2) Images were evaluated by the criteria of: coating, homogeneity, rate of gastric emptying and the total transit time. These are considered to be a measure of the stability of the suspension during transit down the GI tract and the ability of the formulation to adhere to the lower gastrointestinal tract. Suspensions were rated excellent when there was a uniform coating with transradiation of long intestinal segments, sufficient radiodensity to delineate anatomical structure, rapid emptying and transit, and stability and homogeneity during GI transit. A plus sign (+) was assigned when imaging in the lower GI was exceptional, a minus sign (−) as given when it was not. […]
# [3] = system: GI tract; experiment: X-ray diagnostic imaging of mucoadhesion in the GI tract (ferrets); assay type: in vivo; conditions: suspension milled in Pluronic F127
# Protocol: as §1, §2
# [4] = Table 3
smiles,measurement,setting,value
COc1ccc2cc([C@H](C)C(=O)O)ccc2c1 [naproxen],Particle Size Weight Average,"[1]; naproxen 5%, poloxamer F-68 3.0%",270 nm
CN(Cc1cnc2nc(N)nc(N)c2n1)c1ccc(C(=O)N[C@@H](CCC(=O)O)C(=O)O)cc1 [methotrexate],Particle Size Weight Average,"[1]; methotrexate 5%, poloxamer F-68 2.5%",196 nm
same,Particle Size Weight Average,"[1]; methotrexate 5%, poloxamer F-127 2.5%",248 nm
"CCOC(=O)c1c(I)c(NC(C)=O)c(I)c(NC(C)=O)c1I [WIN 8883, ethyl 3,5-bis(acetylamino)-2,4,6-triodobenzoate]",Upper and lower GI imaging rating,"[2]; suspension milled in/stabilized with Pluronic F127, rats",excellent
same,GI imaging rating,"[2]; suspension stabilized with F88, for the upper GI only",excellent
same,Upper and lower GI imaging rating,[3],excellent
same,Aqueous Solubility,[4],<5 µg/mL
C[C@@H]1[C@H](O)[C@@H](C)/C=C/C=C/C=C/C=C/C=C/C=C/C=C/[C@H](O[C@@H]2O[C@H](C)[C@@H](O)[C@H](N)[C@@H]2O)C[C@@H]2O[C@](O)(C[C@@H](O)C[C@@H](O)[C@H](O)CC[C@@H](O)C[C@@H](O)CC(=O)O[C@H]1C)C[C@H](O)[C@H]2C(=O)O [amphotericin B],Particle Size Weight Average,"[1]; amphotericin B 5%, poloxamer F-68 2.5%",426 nm
same,Particle Size Weight Average,"[1]; amphotericin B 5%, poloxamer F-127 2.5%",510 nm
COc1ccc2c(c1)c(CC(=O)O)c(C)n2C(=O)c1ccc(Cl)cc1 [indomethacin],Particle Size Weight Average,"[1]; indomethacin 5%, poloxamer F-68 1%",228 nm
same,Particle Size Weight Average,"[1]; indomethacin 5%, poloxamer F-68 2.5%",193 nm
COC1=CC(=O)C[C@@H](C)[C@]12Oc1c(Cl)c(OC)cc(OC)c1C2=O [griseofulvin],Particle Size Weight Average,"[1]; griseofulvin 5%, poloxamer F-68 2.5%",617 nm
same,Particle Size Weight Average,"[1]; griseofulvin 5%, poloxamer F-127 2.5%",617 nm
CS(=O)(=O)OCCC(=O)N1CCN(C(=O)CCOS(C)(=O)=O)CC1 [piposulfan],Particle Size Weight Average,"[1]; piposulfan 2%, poloxamer F-108 0.5%",339 nm
CC[C@@]1(O)C(=O)OCc2c1cc1n(c2=O)Cc2cc3ccccc3nc2-1 [camptothecin],Particle Size Weight Average,"[1]; camptothecin 2%, poloxamer F-68 2%",107 nm
same,Particle Size Weight Average,"[1]; camptothecin 2%, poloxamer F-108 1%",111 nm
CCC(=O)OCC(=O)[C@@]1(OC(=O)CC)[C@@H](C)C[C@H]2[C@@H]3CCC4=CC(=O)C=C[C@]4(C)[C@@]3(Cl)[C@@H](O)C[C@@]21C [beclomethasone dipropionate],Particle Size Weight Average,"[1]; beclomethasone dipropionate 5%, poloxamer F-68 2.5%",221 nm
same,Particle Size Weight Average,"[1]; beclomethasone dipropionate 5%, poloxamer F-127 2.5%",244 nm
CS(=O)(=O)OCCCCOS(C)(=O)=O [busulfan],Particle Size Weight Average,"[1]; busulfan 2%, poloxamer F-108 0.5%",387 nm
O=C1NC(=O)C(c2ccccc2)(c2ccccc2)N1 [phenytoin],Particle Size Weight Average,"[1]; phenytoin 5%, poloxamer F-68 2.5%",385 nm
same,Particle Size Weight Average,"[1]; phenytoin 5%, poloxamer F-108 2.5%",385 nm
same,Particle Size Weight Average,"[1]; phenytoin 5%, poloxamer F-127 2.5%",431 nm
CC(C)Cc1ccc(C(C)C(=O)O)cc1 (centres unmarked) [ibuprofen],Particle Size Weight Average,"[1]; ibuprofen 3%, poloxamer F-68 2.0%",253 nm
